Values of other authors, collected in US20230240962A1, “METHOD FOR DYEING KERATINOUS MATERIAL, COMPRISING THE USE OF AN ORGANOSILICON COMPOUND, AN ALKYL(POLY)GLYCOSIDE, A DYEING COMPOUND AND A POST-TREATMENT AGENT” (Henkel AG & Co. KGaA, priority 2020, published 2023).

Conditions: 25° C.

With `Nc1cc(S(=O)(=O)[O-])cc2cc(S(=O)(=O)[O-])c(N=Nc3ccccc3)c(O)c12.[Na+].[Na+]` [Acid Red 33, disodium salt of 5-amino-4-hydroxy-3-(phenylazo)-naphthalene-2,7-disulphonate] as the compound, how does the solubility in water read?
Its solubility in water is 2500 µg/mL.

For `O=C([O-])C1=NN(c2ccc(S(=O)(=O)[O-])cc2)C(=O)C1N=Nc1ccc(S(=O)(=O)[O-])cc1.[Na+].[Na+].[Na+]` (centres unmarked) [Acid Yellow 23, trisodium salt of 4,5-dihydro-5-oxo-1-(4-sulfophenyl)-4-((4-sulfophenyl)azo)-1H-pyrazole-3-carboxylic acid], which “solubility in water (in words)” value is on record?
Its value is “highly soluble”.

Which solubility in water does the source give for `O=S(=O)([O-])c1ccc(N=Nc2c(O)ccc3ccccc23)cc1.[Na+]` [Acid Orange 7, sodium salt of 4-[(2-hydroxy-1-naphthyl)azo]benzene sulphonate] here?
Its solubility in water is “more than 7 g/L”.

Which solubility in water does the source give for `CCN(Cc1cccc(S(=O)(=O)[O-])c1)c1ccc(C(=C2C=CC(=[N+](CC)Cc3cccc(S(=O)(=O)[O-])c3)C=C2)c2ccccc2S(=O)(=O)[O-])cc1.[Na+].[Na+]` [Acid Blue 9] here?
The solubility in water was “more than 20 wt. %”.

With `O=C([O-])c1c(Cl)c(Cl)c(Cl)c(Cl)c1-c1c2c(Br)cc(=O)c(Br)c-2oc2c(Br)c(O)cc(Br)c12.O=C([O-])c1c(Cl)c(Cl)c(Cl)c(Cl)c1-c1c2c(Br)cc(=O)c(Br)c-2oc2c(Br)c(O)cc(Br)c12.[Na+].[Na+]` [Acid Red 92, disodium salt of 3,4,5,6-tetrachloro-2-(1,4,5,8-tetrabromo-6-hydroxy-3-oxoxanthen-9-yl)benzoic acid] as the compound, how does the solubility in water read?
Its solubility in water is “greater than 10 g/L”.
